ChEMBL document CHEMBL3885881, “DrugMatrix”

Species on record: Rattus norvegicus
Assay: DrugMatrix - Regimen: Daily Repeat
Format: toxicity, organism-based, Sprague-Dawley
Set-up: regimen Daily Repeat, gender Male, age 6-8 weeks
Settings: in vivo, po, route oral GAVAGE, vehicle 100 % WATER; for ABSOLUTE BASOPHIL / ABSOLUTE EOSINOPHIL / ABSOLUTE LYMPHOCYTE / ABSOLUTE MONOCYTE / ABSOLUTE SEGMENTED NEUTROPHIL / BASOPHIL / EOSINOPHIL / ERYTHROCYTE COUNT / HEMATOCRIT / HEMOGLOBIN / LEUKOCYTE COUNT / LYMPHOCYTE / MEAN CORPUSCULAR HEMOGLOBIN / MEAN CORPUSCULAR HEMOGLOBIN CONCENTRATION / MEAN CORPUSCULAR VOLUME / MONOCYTE / NEUTROPHIL / NUCLEATED RED BLOOD CELLS / PLATELET COUNT: tissue Blood; for ALANINE AMINOTRANSFERASE / ALBUMIN / ALKALINE PHOSPHATASE / ASPARTATE AMINOTRANSFERASE / BLOOD UREA NITROGEN / CARBON DIOXIDE / CHLORIDE / CHOLESTEROL / CREATINE PHOSPHOKINASE / CREATININE / GLUCOSE / LACTATE DEHYDROGENASE / LIPASE / PHOSPHORUS / POTASSIUM / SODIUM / TOTAL BILIRUBIN / TOTAL PROTEIN / URIC ACID: tissue Plasma
[1] = 0 mg/kg, 72 h, dose level Control, time 3 day
[2] = 0 mg/kg, 120 h, dose level Control, time 5 day
[3] = 100 mg/kg, 72 h, dose level Low, time 3 day

CC(C)(S)[C@@H](N)C(=O)O [PENICILLAMINE] was tested, and the “ABSOLUTE BASOPHIL” value [1] was 0 CELLS/uL, the “ABSOLUTE EOSINOPHIL” value [1] was 0 CELLS/uL and the “ABSOLUTE LYMPHOCYTE” value [1] was 7802.17 CELLS/uL. For the same compound, the “ABSOLUTE MONOCYTE” value [1] was 13.5 CELLS/uL, the “ABSOLUTE SEGMENTED NEUTROPHIL” value [1] was 617.67 CELLS/uL and the BASOPHIL [1] was 0%. The EOSINOPHIL [1] was 0%, the “ERYTHROCYTE COUNT” value [1] was 5.35 x10E6/uL and the HEMATOCRIT [1] was 33.02%. The HEMOGLOBIN [1] was 12.88 G/DL, the “LEUKOCYTE COUNT” value [1] was 8.43 x10E3/uL and the LYMPHOCYTE [1] was 92.67%. The “MEAN CORPUSCULAR HEMOGLOBIN” value [1] was 24.12 pg, the “MEAN CORPUSCULAR HEMOGLOBIN CONCENTRATION” value [1] was 39.03 G/DL and the “MEAN CORPUSCULAR VOLUME” value [1] was 61.8 fL. The MONOCYTE [1] was 0.17%, the NEUTROPHIL [1] was 7.17% and the “NUCLEATED RED BLOOD CELLS” value [1] was 0 /100WBC. For the same compound, the “PLATELET COUNT” value [1] was 1124.83 x10E3/uL, the “ALANINE AMINOTRANSFERASE” value [1] was 54.17 u/L and the ALBUMIN [1] was 4.07 G/DL. For the same compound, the “ALKALINE PHOSPHATASE” value [1] was 383.83 u/L, the “ASPARTATE AMINOTRANSFERASE” value [1] was 82.17 u/L and the “BLOOD UREA NITROGEN” value [1] was 13.67 mg/dL. For the same compound, the “CARBON DIOXIDE” value [1] was 31 mmol/L, the CHLORIDE [1] was 100.83 MEQ/L and the CHOLESTEROL [1] was 65.17 mg/dL. For the same compound, the “CREATINE PHOSPHOKINASE” value [1] was 228.33 u/L, the CREATININE [1] was 0.12 mg/dL and the GLUCOSE [1] was 148 mg/dL. The “LACTATE DEHYDROGENASE” value [1] was 97.83 u/L, the LIPASE [1] was 9.17 u/L and the PHOSPHORUS [1] was 9.75 mg/dL. The POTASSIUM [1] was 5.85 MEQ/L, the SODIUM [1] was 147.02 MEQ/L and the “TOTAL BILIRUBIN” value [1] was 0.18 mg/dL. The “TOTAL PROTEIN” value [1] was 6.1 G/DL, the “URIC ACID” value [1] was 0.5 mg/dL and the “ABSOLUTE BASOPHIL” value [2] was 0 CELLS/uL. The “ABSOLUTE EOSINOPHIL” value [2] was 0 CELLS/uL, the “ABSOLUTE LYMPHOCYTE” value [2] was 10538 CELLS/uL and the “ABSOLUTE MONOCYTE” value [2] was 15.83 CELLS/uL. The “ABSOLUTE SEGMENTED NEUTROPHIL” value [2] was 762.83 CELLS/uL, the BASOPHIL [2] was 0% and the EOSINOPHIL [2] was 0%. The “ERYTHROCYTE COUNT” value [2] was 5.49 x10E6/uL, the HEMATOCRIT [2] was 34.63% and the HEMOGLOBIN [2] was 13.72 G/DL. The “LEUKOCYTE COUNT” value [2] was 11.32 x10E3/uL, the LYMPHOCYTE [2] was 92.67% and the “MEAN CORPUSCULAR HEMOGLOBIN” value [2] was 24.97 pg. The “MEAN CORPUSCULAR HEMOGLOBIN CONCENTRATION” value [2] was 39.57 G/DL, the “MEAN CORPUSCULAR VOLUME” value [2] was 63.05 fL and the MONOCYTE [2] was 0.17%. The NEUTROPHIL [2] was 7.17%, the “NUCLEATED RED BLOOD CELLS” value [2] was 0.17 /100WBC and the “PLATELET COUNT” value [2] was 802 x10E3/uL. The “ALANINE AMINOTRANSFERASE” value [2] was 50.5 u/L, the ALBUMIN [2] was 4.07 G/DL and the “ALKALINE PHOSPHATASE” value [2] was 336.83 u/L. The “ASPARTATE AMINOTRANSFERASE” value [2] was 81 u/L, the “BLOOD UREA NITROGEN” value [2] was 14.17 mg/dL and the “CARBON DIOXIDE” value [2] was 32 mmol/L. The CHLORIDE [2] was 98.33 MEQ/L, the CHOLESTEROL [2] was 69.17 mg/dL and the “CREATINE PHOSPHOKINASE” value [2] was 253.33 u/L. For the same compound, the CREATININE [2] was 0.13 mg/dL, the GLUCOSE [2] was 153.67 mg/dL and the “LACTATE DEHYDROGENASE” value [2] was 157 u/L. The LIPASE [2] was 9 u/L, the PHOSPHORUS [2] was 10.78 mg/dL and the POTASSIUM [2] was 6.11 MEQ/L. For the same compound, the SODIUM [2] was 144.57 MEQ/L, the “TOTAL BILIRUBIN” value [2] was 0.15 mg/dL and the “TOTAL PROTEIN” value [2] was 6.05 G/DL. For the same compound, the “URIC ACID” value [2] was 0.73 mg/dL, the “ABSOLUTE BASOPHIL” value [3] was 0 CELLS/uL and the “ABSOLUTE EOSINOPHIL” value [3] was 0 CELLS/uL. For the same compound, the “ABSOLUTE LYMPHOCYTE” value [3] was 8040.67 CELLS/uL, the “ABSOLUTE MONOCYTE” value [3] was 62.33 CELLS/uL and the “ABSOLUTE SEGMENTED NEUTROPHIL” value [3] was 563.67 CELLS/uL. The BASOPHIL [3] was 0%, the EOSINOPHIL [3] was 0% and the “ERYTHROCYTE COUNT” value [3] was 5.32 x10E6/uL. The HEMATOCRIT [3] was 34.33%, the HEMOGLOBIN [3] was 13 G/DL and the “LEUKOCYTE COUNT” value [3] was 8.67 x10E3/uL. The LYMPHOCYTE [3] was 92.67%, the “MEAN CORPUSCULAR HEMOGLOBIN” value [3] was 24.53 pg and the “MEAN CORPUSCULAR HEMOGLOBIN CONCENTRATION” value [3] was 37.9 G/DL. For the same compound, the “MEAN CORPUSCULAR VOLUME” value [3] was 64.67 fL, the MONOCYTE [3] was 0.67% and the NEUTROPHIL [3] was 6.67%. The “NUCLEATED RED BLOOD CELLS” value [3] was 0 /100WBC, the “PLATELET COUNT” value [3] was 991.33 x10E3/uL and the “ALANINE AMINOTRANSFERASE” value [3] was 51 u/L. For the same compound, the ALBUMIN [3] was 4.03 G/DL, the “ALKALINE PHOSPHATASE” value [3] was 403.33 u/L and the “ASPARTATE AMINOTRANSFERASE” value [3] was 82.33 u/L. The “BLOOD UREA NITROGEN” value [3] was 13.67 mg/dL, the “CARBON DIOXIDE” value [3] was 32.33 mmol/L and the CHLORIDE [3] was 100.33 MEQ/L. For the same compound, the CHOLESTEROL [3] was 73.33 mg/dL, the “CREATINE PHOSPHOKINASE” value [3] was 332 u/L and the CREATININE [3] was 0.11 mg/dL. For the same compound, the GLUCOSE [3] was 145.67 mg/dL, the “LACTATE DEHYDROGENASE” value [3] was 165 u/L and the LIPASE [3] was 9 u/L. The PHOSPHORUS [3] was 10 mg/dL, the POTASSIUM [3] was 5.88 MEQ/L and the SODIUM [3] was 145.23 MEQ/L. For the same compound, the “TOTAL BILIRUBIN” value [3] was 0.13 mg/dL, the “TOTAL PROTEIN” value [3] was 5.93 G/DL and the “URIC ACID” value [3] was 0.73 mg/dL.
